Test results published in ChEMBL document CHEMBL5727861, “Compounds and methods for the enhanced degradation of targeted proteins” (2020).

Molecular target: von Hippel-Lindau disease tumor suppressor (Homo sapiens, UniProt P40337)
Assay: Compounds were transferred from the stock plate to the assay plate and diluted into running buffer containing no DMSO. All compounds were run as a six-concentration series with a final assay top concentration of 100 uM. Data analysis was performed in Scrubber 2 (BioLogic software, Campbell, Australia). Blanks were subtracted and data was corrected for DMSO using a standard DMSO curve.

Chain of von Hippel-Lindau disease tumor suppressor (P40337 whole entry): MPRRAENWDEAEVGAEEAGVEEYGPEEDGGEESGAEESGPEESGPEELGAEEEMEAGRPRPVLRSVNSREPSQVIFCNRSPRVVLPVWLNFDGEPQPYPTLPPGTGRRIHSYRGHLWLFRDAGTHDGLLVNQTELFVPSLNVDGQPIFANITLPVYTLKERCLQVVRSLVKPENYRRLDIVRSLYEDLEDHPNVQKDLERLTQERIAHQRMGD

COc1cc([C@H](C(=O)N2C[C@H](O)C[C@H]2C(=O)NCc2ccc(-c3scnc3C)cc2)C(C)C)on1
Kd: 13 µM
